Measurements reported in patent publication US9902701B2, “Pyridazones and triazinones for treatment and prophylaxis of hepatitis B virus infection” (priority 2014, dated 2018).
pIC50: −log10 of the molar value.

test system: HBsAg; assay: HBsAg assay: chemiluminescence immunoassay (CLIA) of secreted HBsAg in supernatant of HepG2.2.15 cells; assay type: cell-based, HBV; conditions: Hepatitis B virus
Protocol: HepG2.2.15 cells (Acs et al. Proc Natl Acad Sci USA, 84, (1987), 4641-4), a constitutively HBV-expressing cell line were cultured in DMEM+Glutamax-I medium (Invitrogen, Carlsbad, Calif., USA), supplemented with 10% fetal bovine serum (Invitrogen) and G418 (Invitrogen) at a final concentration of 200 mg/L and maintained in 5% CO2 at 37° C.
HepG2.2.15 cells were seeded in duplicate into white, 96-well plates at 1.5×10^4 cells/well. The cells were treated with a three-fold serial dilution series of the compounds in DMSO. The final DMSO concentration in all wells was 1% and DMSO was used as no drug control.
The HBsAg chemiluminescence immunoassay (CLIA) kit (Autobio Diagnostics Co., Zhengzhou, China, Catalog number: CL0310-2) was used to measure the levels of secreted HBV antigens semi-quantitatively. For the detection 50 μL/well culture supernatant was used and HBsAg was quantified using HBsAg chemiluminescence immunoassay (CLIA) kit (Autobio Diagnostics Co., Zhengzhou, China, Catalog number: CL0310-2), 50 μL of the supernatant was transferred to the CLIA assay plate and 50 μL of enzyme conjugate reagent was added into each well. The plates were sealed and gently agitated for 1 hour at room temperature. The supernatant-enzyme-mixture was discarded and wells were washed 6 times with 300 μL of PBS. The residual liquid was removed by plating the CLIA plate […] on absorbent tissue paper. 25 μL of substrates A and B were added to each well. Luminance was measured using a luminometer (Mithras LB 940 Multimode Microplate Reader) after 10 minutes incubation. Dose-response curves were generated and the IC50 value was extrapolated by using the E-WorkBook Suite (ID Business Solutions Ltd., Guildford, UK). The IC50 was defined as the compound concentration (or conditioned media log dilution) at which HBsAg secretion was reduced by 50% compared to the no drug control.

| Structure (SMILES) | pIC50 |
| --- | --- |
| CN(C(=O)CN1N=C(c2ccc(F)cc2F)CCC1=O)c1ccc(Cl)cc1 [Example 1-33, N-(4-Chlorophenyl)-2-[3-(2,4-difluorophenyl)-6-oxo-4,5-dihydropyridazin-1-yl]-N-methyl-acetamide] | 6.07 |
| CN(C(=O)CN1N=C(c2ccc(F)cc2F)CCC1=O)c1cccc(F)c1 [Example 1-34, 2-[3-(2,4-Difluorophenyl)-6-oxo-4,5-dihydropyridazin-1-yl]-N-(3-fluorophenyl)-N-methyl-acetamide] | 5.90 |
| Cc1cc(C2=NN(CC(=O)N(C)c3cccc(C(F)(F)F)c3)C(=O)CC2)ccc1F [Example 1-35, 2-[3-(4-Fluoro-3-methyl-phenyl)-6-oxo-4,5-dihydropyridazin-1-yl]-N-methyl-N-[3-(trifluoromethyl)phenyl]acetamide] | 5.33 |
| Cc1cc(C2=NN(CC(=O)N(C)c3ccc(C(F)(F)F)cc3)C(=O)CC2)ccc1F [Example 1-36, 2-[3-(4-Fluoro-3-methyl-phenyl)-6-oxo-4,5-dihydropyridazin-1-yl]-N-methyl-N-[4-(trifluoromethyl)phenyl]acetamide] | 5.51 |
| Cc1cc(C2=NN(CC(=O)N(C)c3ccc(F)c(C(F)(F)F)c3)C(=O)CC2)ccc1F [Example 1-37, 2-[3-(4-Fluoro-3-methyl-phenyl)-6-oxo-4,5-dihydropyridazin-1-yl]-N-[4-fluoro-3-(trifluoromethyl)phenyl]-N-methyl-acetamide] | 5.50 |
| Cc1cc(C2=NN(CC(=O)N(C)c3ccc(C(F)(F)F)c(F)c3)C(=O)CC2)ccc1F [Example 1-38, 2-[3-(4-Fluoro-3-methyl-phenyl)-6-oxo-4,5-dihydropyridazin-1-yl]-N-[3-fluoro-4-(trifluoromethyl)phenyl]-N-methyl-acetamide] | 5.63 |
| CN(C(=O)CN1N=C(c2ccc(C(F)(F)F)cc2)CCC1=O)c1cccc(Cl)c1 [Example 1-39, N-(3-Chlorophenyl)-N-methyl-2-[6-oxo-3-[4-(trifluoromethyl)phenyl]-4,5-dihydropyridazin-1-yl]acetamide] | 6.43 |
| CN(C(=O)CN1N=C(c2ccc(C(F)(F)F)cc2)CCC1=O)c1ccc(C(F)(F)F)cc1 [Example 1-40, N-Methyl-2-[6-oxo-3-[4-(trifluoromethyl)phenyl]-4,5-dihydropyridazin-1-yl]-N-[4-(trifluoromethyl)phenyl]acetamide] | 6.42 |
| CN(C(=O)CN1N=C(c2ccc(C(F)(F)F)cc2)CCC1=O)c1cccc(C(F)(F)F)c1 [Example 1-41, N-Methyl-2-[6-oxo-3-[4-(trifluoromethyl)phenyl]-4,5-dihydropyridazin-1-yl]-N-[3-(trifluoromethyl)phenyl]acetamide] | 6.60 |
| CN(C(=O)CN1N=C(c2ccc(C(F)(F)F)cc2)CCC1=O)c1cccc(F)c1 [Example 1-42, N-(3-Fluorophenyl)-N-methyl-2-[6-oxo-3-[4-(trifluoromethyl)phenyl]-4,5-dihydropyridazin-1-yl]acetamide] | 6.28 |
| CN(C(=O)CN1N=C(c2ccc(C(F)(F)F)cc2)CCC1=O)c1ccc(F)cc1 [Example 1-43, N-(4-Fluorophenyl)-N-methyl-2-[6-oxo-3-[4-(trifluoromethyl)phenyl]-4,5-dihydropyridazin-1-yl]acetamide] | 5.61 |
| CN(C(=O)CN1N=C(c2ccc(C(F)(F)F)cc2)CCC1=O)c1ccc(Cl)cc1 [Example 1-44, N-(4-Chlorophenyl)-N-methyl-2-[6-oxo-3-[4-(trifluoromethyl)phenyl]-4,5-dihydropyridazin-1-yl]acetamide] | 6.02 |
| CN(C(=O)CN1N=C(c2ccc(Cl)c(Cl)c2)CCC1=O)c1ccc(C(F)(F)F)cc1 [Example 1-45, 2-[3-(3,4-Dichlorophenyl)-6-oxo-4,5-dihydropyridazin-1-yl]-N-methyl-N-[4-(trifluoromethyl)phenyl]acetamide] | 6.64 |
| CN(C(=O)CN1N=C(c2ccc(Cl)c(Cl)c2)CCC1=O)c1ccc(Cl)cc1 [Example 1-46, N-(4-Chlorophenyl)-2-[3-(3,4-dichlorophenyl)-6-oxo-4,5-dihydropyridazin-1-yl]-N-methyl-acetamide] | 6.38 |
| CN(C(=O)CN1N=C(c2ccc(F)cc2)CCC1=O)c1ccccc1 [Example 1-47, 2-[3-(4-Fluorophenyl)-6-oxo-4,5-dihydropyridazin-1-yl]-N-methyl-N-phenyl-acetamide] | 5.05 |
| CN(C(=O)CN1N=C(c2ccc(F)cc2)CCC1=O)c1ccc(Cl)cc1 [Example 1-48, N-(4-Chlorophenyl)-2-[3-(4-fluorophenyl)-6-oxo-4,5-dihydropyridazin-1-yl]-N-methyl-acetamide] | 5.73 |

| Structure (SMILES) | pIC50 |
| --- | --- |
| CN(C(=O)CN1N=C(c2ccc(Br)cc2)CCC1=O)c1ccccc1 [Example 1-49, 2-[3-(4-Bromophenyl)-6-oxo-4,5-dihydropyridazin-1-yl]-N-methyl-N-phenyl-acetamide] | 5.41 |
| CN(C(=O)CN1N=C(c2ccc(Br)cc2)CCC1=O)c1ccc(Cl)cc1 [Example 1-50, 2-[3-(4-Bromophenyl)-6-oxo-4,5-dihydropyridazin-1-yl]-N-(4-chlorophenyl)-N-methyl-acetamide] | 5.91 |
| CN(C(=O)CN1N=C(c2ccc(Br)cc2)CCC1=O)c1ccc(C(F)(F)F)cc1 [Example 1-51, 2-[3-(4-Bromophenyl)-6-oxo-4,5-dihydropyridazin-1-yl]-N-methyl-N-[4-(trifluoromethyl)phenyl]acetamide] | 5.94 |
| CN(C(=O)CN1N=C(c2ccc(F)c(F)c2)CCC1=O)c1cccc(C(F)(F)F)c1 [Example 1-52, 2-[3-(3,4-Difluorophenyl)-6-oxo-4,5-dihydropyridazin-1-yl]-N-methyl-N-[3-(trifluoromethyl)phenyl]acetamide] | 6.33 |
| CN(C(=O)CN1N=C(c2ccc(F)c(F)c2)CCC1=O)c1ccc(C(F)(F)F)cc1 [Example 1-53, 2-[3-(3,4-Difluorophenyl)-6-oxo-4,5-dihydropyridazin-1-yl]-N-methyl-N-[4-(trifluoromethyl)phenyl]acetamide] | 6.07 |
| CN(C(=O)CN1N=C(c2ccc(Cl)cc2Cl)CCC1=O)c1ccc(Cl)cc1 [Example 1-54, N-(4-Chlorophenyl)-2-[3-(2,4-dichlorophenyl)-6-oxo-4,5-dihydropyridazin-1-yl]-N-methyl-acetamide] | 5.71 |
| CN(C(=O)CN1N=C(c2ccc(C#N)cc2)CCC1=O)c1ccc(Cl)cc1 [Example 1-55, N-(4-Chlorophenyl)-2-[3-(4-cyanophenyl)-6-oxo-4,5-dihydropyridazin-1-yl]-N-methyl-acetamide] | 5.42 |
| Cc1ccc(C2=NN(CC(=O)N(C)c3ccc(Cl)cc3)C(=O)CC2)cc1 [Example 1-56, N-(4-Chlorophenyl)-N-methyl-2-[6-oxo-3-(p-tolyl)-4,5-dihydropyridazin-1-yl]acetamide] | 5.02 |
| CN(C(=O)CN1N=C(c2cccc(Cl)c2)CCC1=O)c1ccc(Cl)cc1 [Example 1-57, N-(4-Chlorophenyl)-2-[3-(3-chlorophenyl)-6-oxo-4,5-dihydropyridazin-1-yl]-N-methyl-acetamide] | 5.52 |
| CN(C(=O)Cn1nc(-c2ccc(Cl)cc2)ccc1=O)c1ccc(C(F)(F)F)cc1 [Example 2-1, 2-[3-(4-Chlorophenyl)-6-oxo-pyridazin-1-yl]-N-methyl-N-[4-(trifluoromethyl)phenyl]acetamide] | 6.05 |
| CN(C(=O)Cn1nc(-c2ccc(Cl)c(F)c2)ccc1=O)c1ccc(C(F)(F)F)cc1 [Example 2-2, 2-[3-(4-Chloro-3-fluorophenyl)-6-oxo-pyridazin-1-yl]-N-methyl-N-[4-(trifluoromethyl)phenyl]acetamide] | 6.28 |
| CN(C(=O)Cn1nc(-c2ccc(Cl)cc2F)ccc1=O)c1ccc(C(F)(F)F)cc1 [Example 2-3, 2-[3-(4-Chloro-2-fluoro-phenyl)-6-oxo-pyridazin-1-yl]-N-methyl-N-[4-(trifluoromethyl)phenyl]acetamide] | 5.82 |
| CN(C(=O)Cn1nc(-c2c(F)cccc2Cl)ccc1=O)c1ccc(C(F)(F)F)cc1 [Example 2-4, 2-[3-(2-Chloro-6-fluoro-phenyl)-6-oxo-pyridazin-1-yl]-N-methyl-N-[4-(trifluoromethyl)phenyl]acetamide] | 5.32 |
| CN(C(=O)Cn1nc(-c2ccc(Cl)cc2)ccc1=O)c1ccc(Cl)cc1 [Example 2-5, N-(4-Chlorophenyl)-2-[3-(4-chlorophenyl)-6-oxo-pyridazin-1-yl]-N-methyl-acetamide] | 5.75 |
| CN(C(=O)CN1N=C(c2ccc(Cl)cc2)CNC1=O)c1ccc(C(F)(F)F)cc1 [Example 3-1, 2-[6-(4-Chlorophenyl)-3-oxo-4,5-dihydro-1,2,4-triazin-2-yl]-N-methyl-N-[4-(trifluoromethyl)phenyl]acetamide] | 4.99 |
| CN(C(=O)Cn1nc(-c2ccc(Cl)cc2)cnc1=O)c1ccc(Cl)cc1 [Example 3-2, N-(4-Chlorophenyl)-2-[6-(4-chlorophenyl)-3-oxo-1,2,4-triazin-2-yl]-N-methyl-acetamide] | 5.21 |
